Earlier results, collected in patent US6423719B1, “Method for treating benign prostate hyperplasia” (Upsher-Smith Laboratories, Inc., priority 1999, dated 2002).

How the values were obtained:
[1] = for half life (plasma / elimination) / bioavailability: in vivo
[2] = in vivo
5α-reductase = target: T1, 5α-reductase (Homo sapiens, UniProt P31213); settings: stable enzyme complex with 5α-reductase
T1 sequence (P31213 1-254): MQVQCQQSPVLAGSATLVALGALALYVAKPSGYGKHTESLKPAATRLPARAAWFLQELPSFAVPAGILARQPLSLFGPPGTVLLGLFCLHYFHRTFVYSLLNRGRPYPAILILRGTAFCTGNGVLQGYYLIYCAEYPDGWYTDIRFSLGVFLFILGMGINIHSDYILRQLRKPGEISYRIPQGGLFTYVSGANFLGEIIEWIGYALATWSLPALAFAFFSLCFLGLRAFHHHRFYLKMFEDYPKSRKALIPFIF

half life (plasma / elimination) [1] | bioavailability [1] | Compound | other results
about 5 hours |  | COc1cc2nc(N(C)CCCNC(=O)C3CCCO3)nc(N)c2cc1OC (stereo not drawn) [Alfuzosin] | 
about 5 hours | less than 30% | O=C(NC1CCN(CCc2c[nH]c3ccccc23)CC1)c1ccccc1 [Indoramin] | 
 |  | Cn1c(=O)c2[nH]cnc2n(C)c1=O [theophylline] | dose excreted unchanged in the urine [2]: about 10%
 |  | CC(C)(C)NC(=O)[C@H]1CC[C@H]2[C@@H]3CC[C@H]4NC(=O)C=C[C@]4(C)[C@H]3CC[C@]12C [Finasteride, N-(2-methyl-2-propyl)3-oxo-4-aza-5α-androst-1-ene-17β-carboxamide] | turnover from the enzyme complex (t½) (5α-reductase): ~30 days
approximately 12 hours | greater than 90% | COc1cc2nc(N3CCN(C(=O)C4CCCO4)CC3)nc(N)c2cc1OC (stereo not drawn) [Terazosin] | water solubility: more water soluble than prazoin
 |  | CC(COc1ccccc1)N(CCCl)Cc1ccccc1 (stereo not drawn) [Phenoxybenzamine] | half life ([1]; administered intravenously): approximately 24 hours
